“And” between values parts separate entries of the source, which are not always exact repeats. Equal entries are not always repeated.
Legend:
dengue virus type 2 [1] = assay: Functional assay to measure dose dependent changes in antiviral-drug inhibitory efficacy against Dengue virus type 2 New Guinea C in Vero E6 miRFP670 cells (cotreated with P-gp inhibitor, CP100356). Cells are treated with antiviral candidates that are serially diluted, following infection, cells are fixed. EC50 is reported via analysis of fluorescence intensity using high-content imager. The …; type: organism-based, Chlorocebus sabaeus, Vero C1008; conditions: Dengue virus; for EC90: P-gp concentration 500 nM, P-gp inhibitor CP100356
Zika virus [2] = assay: EC50 is reported via analysis of immunofluorescence staining. The assay has been performed by Icahn School of Medicine at Mount Sinai.; type: functional, organism-based, Chlorocebus sabaeus, VeroE6/TMPRSS2; conditions: for EC90: Baseline response 0 %, P-gp concentration 2 uM, P-gp inhibitor Elacidar
Zika virus [3] = assay: Functional CPE-based assay to measure dose dependent changes in antiviral-drug inhibitory efficacy against Zika virus MR766 in Vero E6 miRFP670 cells (cotreated with P-gp inhibitor, CP100356). Cells are treated with antiviral candidates that are serially diluted. EC50 is reported via analysis of MTS assay as a readout of CPE. The assay has been performed by KU Leuven.; type: organism-based, Chlorocebus sabaeus, Vero C1008; conditions: Zika virus, Vero C1008; for EC90: Baseline response 0 %, Maximum response 100 %, P-gp concentration 500 nM, P-gp inhibitor CP100356
dengue virus type 2 [4] = assay: Functional immunofluorescence assay to measure dose dependent changes in antiviral-drug inhibitory efficacy against Dengue virus type 2 Thailand/16681/84 in Vero E6/TMPRSS2 cells (cotreated with P-gp inhibitor, Elacridar). Cells are treated with antiviral candidates that are serially diluted, following infection, cells are fixed. EC50 is reported via analysis of immunofluorescence staining. The assay has been performed by Icahn School of Medicine at Mount Sinai.; type: organism-based, Chlorocebus sabaeus, VeroE6/TMPRSS2; conditions: for EC90: P-gp concentration 2 uM, P-gp inhibitor Elacidar

`O=C(Nc1ccc2c(c1)CNC2)c1cc(Cl)cc2ccncc12` was tested, and the EC50 (dengue virus type 2 [1]; Vero C1008) was 41.2 µM, the EC90 (dengue virus type 2 [1]; Vero C1008, Baseline response 0 %, Hill slope -2.845, Maximum measured 98.374 %, Maximum response 100 %, Minimum measured 34.264 %, R squared 0.76) was over 50 µM and the EC90 (Zika virus [2]; EC90 CI (lower) 0.484 uM, EC90 CI (upper) 78.893 uM, Hill slope -5.004, Maximum measured 134.979 %, Maximum response 50 %, Minimum measured 2.857 %, R squared 0.323) was 14.9 µM. It also gave an EC50 (Zika virus [2]; Zika virus, VeroE6/TMPRSS2) of 16.1 µM, an EC90 (Zika virus [2]; Zika virus, VeroE6/TMPRSS2, Hill slope -17.627, Maximum measured 65.213 %, Maximum response 47.14 %, Minimum measured 8.096 %, R squared 0.51) of 18.3 µM and an EC50 (Zika virus [2]; veroe6/tmprss2) of 9.59 µM. For the same compound, the EC50 (Zika virus [3]) was 3.67 µM, the EC90 (Zika virus [3]; EC90 CI (lower) 1.242 uM, EC90 CI (upper) 28.049 uM, Hill slope 4.622, Maximum measured 165.724 %, Minimum measured 0.965 %, R squared 0.715) was 5.9 µM and the EC50 (dengue virus type 2 [4]; Dengue virus, VeroE6/TMPRSS2) was over 50 µM. The EC90 (dengue virus type 2 [4]; Dengue virus, VeroE6/TMPRSS2, Maximum measured 58.239 %, Minimum measured 35.466 %) was over 50 µM, the EC90 (dengue virus type 2 [4]; Dengue virus, VeroE6/TMPRSS2, Baseline response 0 %, Hill slope -1.704, Maximum measured 164.443 %, Maximum response 150 %, Minimum measured 48.079 %, R squared 0.653) was over 50 µM and the EC50 (dengue virus type 2 [4]; veroe6/tmprss2) was 29.3 µM.

Compound `O=C(Nc1ccc2c(c1)CNC2)c1cc(Br)cc2[nH]ncc12` has an EC50 (dengue virus type 2 [1]; Vero C1008) of over 50 µM, an EC90 (dengue virus type 2 [1]; Vero C1008, Baseline response 0 %, Hill slope -0.471, Maximum measured 107.19 %, Maximum response 100 %, Minimum measured 78.588 %, R squared 0.089) of over 50 µM and an EC90 (Zika virus [2]; EC90 CI (lower) 1.042 uM, EC90 CI (upper) 22.584 uM, Hill slope -2.906, Maximum measured 100.475 %, Maximum response 60 %, Minimum measured 3.913 %, R squared 0.559) of 22 µM. The EC90 (Zika virus [2]; Hill slope -0.436, Maximum measured 89.533 %, Maximum response 80 %, Minimum measured 16.256 %, R squared 0.57) was over 50 µM, the EC50 (Zika virus [2]; veroe6/tmprss2) was 3.73 µM and 10.3 µM and the EC50 (Zika virus [3]) was over 50 µM. The EC90 (Zika virus [3]; Hill slope 1.733, Maximum measured 40.291 %, Minimum measured -1.647 %, R squared 0.923) was over 50 µM, the EC50 (dengue virus type 2 [4]; Dengue virus, VeroE6/TMPRSS2) was over 50 µM and the EC90 (dengue virus type 2 [4]; Dengue virus, VeroE6/TMPRSS2, Maximum measured 186.968 %, Minimum measured 93.389 %) was over 50 µM.

In the case of `O=C(Nc1ccc2c(c1)CNC2)c1cc(F)cc2[nH]ncc12`, the EC50 (dengue virus type 2 [1]; Vero C1008) is reported as over 50 µM, the EC90 (dengue virus type 2 [1]; Vero C1008, Maximum measured 105.261 %, Minimum measured 100.126 %) is reported as over 50 µM and the EC90 (Zika virus [2]; EC90 CI (lower) 0.259 uM, EC90 CI (upper) 34.627 uM, Hill slope -1.703, Maximum measured 110.866 %, Maximum response 50 %, Minimum measured 3.647 %, R squared 0.44) is reported as 39.5 µM. For the same compound, the EC90 (Zika virus [2]; Zika virus, VeroE6/TMPRSS2, Hill slope -2.726, Maximum measured 111.669 %, Maximum response 100 %, Minimum measured 14.076 %, R squared 0.547) was over 50 µM, the EC50 (Zika virus [2]; veroe6/tmprss2) was 25.4 µM and 10.9 µM and the EC50 (Zika virus [3]) was 25 µM. It also gave an EC90 (Zika virus [3]; Hill slope 1.231, Maximum measured 66.562 %, Minimum measured -0.926 %, R squared 0.986) of over 50 µM, an EC50 (dengue virus type 2 [4]; Dengue virus, VeroE6/TMPRSS2) of over 50 µM and an EC90 (dengue virus type 2 [4]; Dengue virus, VeroE6/TMPRSS2, Maximum measured 176.33 %, Minimum measured 105.177 %) of over 50 µM.

Compound `O=C(Nc1ccc2c(n1)CNC2)c1cc(Cl)cc2[nH]ncc12` has an EC50 (dengue virus type 2 [1]; Vero C1008) of over 50 µM, an EC90 (dengue virus type 2 [1]; Vero C1008, Baseline response 0 %, Hill slope 0.339, Maximum measured 101.822 %, Maximum response 100 %, Minimum measured 73.077 %, R squared 0.116) of over 50 µM and an EC50 (Zika virus [2]; Zika virus, VeroE6/TMPRSS2) of 5.29 µM. For the same compound, the EC90 (Zika virus [2]; Zika virus, VeroE6/TMPRSS2, Hill slope -0.136, Maximum measured 80.309 %, Maximum response 100 %, Minimum measured 35.788 %, R squared 0.184) was over 50 µM, the EC50 (Zika virus [3]) was over 50 µM and the EC90 (Zika virus [3]; Hill slope 0.276, Maximum measured 8.826 %, Minimum measured 2.871 %, R squared 0.346) was over 50 µM. The EC50 (dengue virus type 2 [4]; Dengue virus, VeroE6/TMPRSS2) was 33.2 µM and the EC90 (dengue virus type 2 [4]; Dengue virus, VeroE6/TMPRSS2, Baseline response 0 %, Hill slope -0.91, Maximum measured 153.42 %, Maximum response 100 %, Minimum measured 44.335 %, R squared 0.461) was over 50 µM.
